Laboratory results reported in patent US8648047B2, “Methods and compositions for inhibition of multi-drug resistance by hyaluronan oligomers” (Tufts University, priority 2002, dated 2014).
Where two headings read alike, the source gives them in different places.

Experiments:
[1] = tested on: MCF-7/Adr drug-resistant human mammary carcinoma cells; experiment: Drug resistance, viable cell number (Coulter Counter); format: cell-based
Description: (§1) FIG. 15A is a line graph showing that MCF-7/Adr drug-resistant human mammary carcinoma cells grown in culture with hyaluronan oligomers are sensitized to doxorubicin. MCF-7/Adr cells were obtained from MCF-7 cells by being selected for drug resistance by exposure to doxorubicin. Cells were grown for 24 h in 24-well plates in RPMI 1640 medium containing Glutamex 1 plus 10% fetal bovine serum at 37° in 5% CO2. Various concentrations of doxorubicin (doxo) were then added and the cells incubated for another 72 h, followed by a further 24 h in the presence or absence of 100 μg/ml hyaluronan oligomers (o-HA). The oligomers were a mixed population of 3-8 repeating disaccharides in length. The cells were then harvested and the number of viable cells was determined in a Coulter Counter.
FIG. 18 is a set of line graphs showing a resulting cell number, on the ordinate, following drug treatment with doxorubicin, concentration (log) in nM on the abscissa, showing restoration of drug sensitivity (inhibition of drug resistance) by HA oligomers, soluble hyaluronan-binding decoys, and CD44 siRNA, using derivatives of MCF-7 cells as in FIG. 17 above.
Therefore, the effect of co-treatment with hyaluronan oligomers on drug resistance was examined in an established system, i.e. MCF-7/Adr human mammary carcinoma cells that have been selected for resistance to doxorubicin (Fairchild, C. R., et al., Cancer Res 47, 5141-8, 1987). First, the effect of hyaluronan oligomers on resistance to doxorubicin in the MCF-7/Adr cells versus the relatively drug-sensitive, parental MCF-7 cell line was compared.

[2] = tested on: MCF-7 human mammary carcinoma cells; experiment: as above; format: cell-based
Description: as §1

[3] = tested on: MCF-7 cells infected with Has2, emmprin or β-galactosidase adenovirus; experiment: Doxorubicin resistance of recombinant adenovirus-infected MCF-7 cells; format: cell-based, human; settings: for IC50: Homo sapiens, MCF7, 48 h, 48 h
Description: Untreated MCF-7 cells or cells infected overnight with a recombinant Has2 adenovirus or a control β-galactosidase adenovirus (β-gal) were washed, then treated in culture for 48 h with 1-1000 nM doxorubicin, followed by analysis of cell number.
Cells were treated in culture for 48 h with 10-1000 nM doxorubicin in the presence or absence of 100 μg/ml o-HA and analyzed as in FIG. 16A.
FIG. 16C is a line graph showing doxorubicin response of untreated MCF-7 cells or cells infected overnight with a recombinant emmprin adenovirus or a control β-galactosidase adenovirus (β-gal) that were treated as described in FIG. 16B.
Emmprin adenovirus-infected MCF-7 cells or control β-galactosidase adenovirus (β-gal)-infected cells were treated in the presence or absence of 100 μg/ml hyaluronan oligomers (o-HA) as described in FIG. 16B. The results in FIGS. 16A-D are expressed as the means (±S.D) of three independent experiments performed in triplicate.

[4] = tested on: MDA-MB231 human mammary carcinoma cells; experiment: Methotrexate resistance, cell number in monolayer culture; format: cell-based
Description: MDA-MB231 human mammary carcinoma cells were treated with increasing concentrations of methotrexate (MTX) in the presence or absence of 100 μg/ml HA oligomers. Cells were grown in monolayer culture in 10% fetal bovine serum and cell number measured in a coulter counter. The MTT assay for viable cells (Denizot, F., et al. J Immunol Methods, 89: 271-277, 1986) gave similar results.
Effect of addition of hyaluronan oligomers on resistance of MDA-MB231 human breast cancer cells to treatment with methotrexate was assessed.

[5] = MCF-7/Adr + o-HA (100 μg/ml hyaluronan oligomers)
[6] = MCF-7 + o-HA (100 μg/ml hyaluronan oligomers)
[7] = Homo sapiens, NCI/ADR-RES, MCF-7/Adr cells, drug alone
[8] = Homo sapiens, MCF7, MCF-7 cells, drug alone

Compound | IC50 [1, 5] [nM] | IC50 [2, 6] [nM] | IC50 [1, 7] [nM] | IC50 [2, 8] [nM] | further results
O=NN(CCCl)C(=O)NCCCl [BCNU, 1,3 bis(2-chloroethyl)-1-nitrosurea] | 180 | 1200 | – | – | IC50 ([1]; MCF-7/Adr cells, drug alone): 14000 nM; IC50 ([2]; MCF-7 cells, drug alone): 500 nM
COc1cccc2c1C(=O)c1c(O)c3c(c(O)c1C2=O)C[C@@](O)(C(=O)CO)C[C@@H]3O[C@H]1C[C@H](N)[C@H](O)[C@H](C)O1 [Doxorubicin] | 40 | 40 | 2200 | 30 | increase in resistance to doxorubicin induced by increased hyaluronan production ([3]; HAS2 adenovirus-infected MCF-7 versus controls): 10-12 fold; IC50 ([3]; Has2 adenovirus-infected MCF-7 cells): 210 nM; IC50 ([3]; uninfected MCF-7 cells): 18 nM; IC50 ([3]; β-galactosidase adenovirus-infected MCF-7 cells): 20 nM
CN(Cc1cnc2nc(N)nc(N)c2n1)c1ccc(C(=O)N[C@@H](CCC(=O)O)C(=O)O)cc1 [Methotrexate] | – | – | – | 20 | IC50 ([4]; MDA-MB-231, MB231 cells, with 100 μg/ml hyaluronan oligomer (FIG. 12), read-out: IC50): ~10 nM; IC50 ([4]; MDA-MB-231, MB231 cells, without hyaluronan oligomer (FIG. 12), read-out: IC50): ~1000 nM; IC50 ([4]; MDA-MB-231, MDA-MB231 + o-HA (100 μg/ml hyaluronan oligomers), read-out: IC50 values): 6 nM; IC50 ([4]; MDA-MB-231, MDA-MB231 cells, drug alone, read-out: IC50 values): 800 nM
CC(=O)O[C@H]1C(=O)[C@@]2(C)[C@H]([C@H](OC(=O)c3ccccc3)[C@]3(O)C[C@H](OC(=O)[C@H](O)[C@@H](NC(=O)c4ccccc4)c4ccccc4)C(C)=C1C3(C)C)[C@]1(OC(C)=O)CO[C@@H]1C[C@@H]2O [Taxol] | 60 | – | 700 | 350 | –
CC[C@]1(O)C[C@H]2CN(CCc3c([nH]c4ccccc34)[C@@](C(=O)OC)(c3cc4c(cc3OC)N(C=O)[C@H]3[C@@](O)(C(=O)OC)[C@H](OC(C)=O)[C@]5(CC)C=CCN6CC[C@]43[C@@H]65)C2)C1 [Vincristine] | 20 | – | 200 | 30 | –
